Assay results reported in patent US11858970B1, “Chili pepper seed isolated oligopeptide FTLE and application thereof in preventing or treating cancer” (CHINA AGRICULTURAL UNIVERSITY, priority 2022, dated 2024).

Test system: HepG2 cells
Test: HepG2 cell proliferation measured by MTT method
Assay type: cell-based
Settings: peptide at 0.1, 0.3 and 0.6 mM, 24 hours, compared with other synthetic peptides
Procedure: Chemical systhesis was conducted in accordance with the peptide sequences obtained by mass spectrometry identification analysis of Example 1 to obtain synthetic peptides. The effect of each peptide on HepG2 cell proliferation was studied, and the specific steps were as follows:
1) HepG2 cell culture: hepG2 cells were obtained from the ATCC cell bank and were cultured in a DMEM medium containing 10% FBS at 37° C. in a 5% CO2 cell incubator. Cells were cultured in a 25 cm ^2 flask, passaged when cells were grown to a density of 70% to 90%, and seeded in a 96-well plate.
2) Peptide fragment treatment: after 24 hours of cell culture in the 96-well plate, the original DMEM medium was aspirated from the wells. DMEM containing peptide fragments at concentrations of 0.1, 0.3, and 0.6 mM were added to each well to continue culturing for 24 hours.
3) Cell proliferation rate measured by MTT method: MTT at a concentration of 5 mg/mL was added to a 96-well plate in 20 μL per well. After incubation for 4 hours, the liquid was aspirated from each well. 150 μL DMSO was added to each well. The absorbance was measured after reacting for 20 min.

For “Phe-Thr-Leu-Glu (FTLE) [oligopeptide identified in chili pepper seed zymolyte, chemically synthesized for testing]”, the “HepG2 cell inhibition rate” value was “better HepG2 cell inhibition rate than other oligopeptides”.
